Experimental data taken from ChEMBL document CHEMBL2331126, “Alkyl esters of gallic acid as anticancer agents: a review” (Eur J Med Chem, 2013).
In brackets after ≈: the same amount, converted by molar mass.

Tests used:
CCRF-CEM = assay: Cytotoxicity against human CEM cells; type: cell-based
L1210 = assay: Cytotoxicity against mouse L1210 cells; type: functional, cell-based
B16-F10 = assay: Cytotoxicity against mouse B16F10 cells; type: functional, cell-based
L929 = assay: Cytotoxicity against mouse L929 cells; type: functional, cell-based
[1] = Cytotoxicity against mouse WEHI231 cells; type: functional, cell-based
MDA-MB-231 = assay: Cytotoxicity against human MDA-MB-231 cells; type: functional, cell-based
HL-60 = assay: Cytotoxicity against human HL60 cells; type: functional, cell-based
HeLa = assay: Cytotoxicity against human HeLa cells; type: functional, cell-based
U-251 [2] = assay: Antimigratory activity against human U251 cells at 40 ug/ml after 8 hrs by wound closure assay; type: functional
U-251 [3] = assay: Antimigratory activity against human U251 cells at 30 ug/ml after 8 hrs by wound closure assay; type: functional
[4] = Antimigratory activity against human U87 cells at 40 ug/ml after 8 hrs by wound closure assay; type: functional, U-87MG ATCC
[5] = Antimigratory activity against human U87 cells at 30 ug/ml after 8 hrs by wound closure assay; type: functional, U-87MG ATCC
[6] = biological target: Disintegrin and metalloproteinase domain-containing protein 17 (Homo sapiens) (UniProt P78536); assay: Inhibition of ADAM17 alpha-secretase activity in human […] cells using amyloid beta precursor protein as substrate at 40 ug/ml after 24 hrs by fluorimetric analysis; type: cell-based
Sequence of Disintegrin and metalloproteinase domain-containing protein 17 (Homo sapiens) (P78536 whole entry, the tested form may be a part): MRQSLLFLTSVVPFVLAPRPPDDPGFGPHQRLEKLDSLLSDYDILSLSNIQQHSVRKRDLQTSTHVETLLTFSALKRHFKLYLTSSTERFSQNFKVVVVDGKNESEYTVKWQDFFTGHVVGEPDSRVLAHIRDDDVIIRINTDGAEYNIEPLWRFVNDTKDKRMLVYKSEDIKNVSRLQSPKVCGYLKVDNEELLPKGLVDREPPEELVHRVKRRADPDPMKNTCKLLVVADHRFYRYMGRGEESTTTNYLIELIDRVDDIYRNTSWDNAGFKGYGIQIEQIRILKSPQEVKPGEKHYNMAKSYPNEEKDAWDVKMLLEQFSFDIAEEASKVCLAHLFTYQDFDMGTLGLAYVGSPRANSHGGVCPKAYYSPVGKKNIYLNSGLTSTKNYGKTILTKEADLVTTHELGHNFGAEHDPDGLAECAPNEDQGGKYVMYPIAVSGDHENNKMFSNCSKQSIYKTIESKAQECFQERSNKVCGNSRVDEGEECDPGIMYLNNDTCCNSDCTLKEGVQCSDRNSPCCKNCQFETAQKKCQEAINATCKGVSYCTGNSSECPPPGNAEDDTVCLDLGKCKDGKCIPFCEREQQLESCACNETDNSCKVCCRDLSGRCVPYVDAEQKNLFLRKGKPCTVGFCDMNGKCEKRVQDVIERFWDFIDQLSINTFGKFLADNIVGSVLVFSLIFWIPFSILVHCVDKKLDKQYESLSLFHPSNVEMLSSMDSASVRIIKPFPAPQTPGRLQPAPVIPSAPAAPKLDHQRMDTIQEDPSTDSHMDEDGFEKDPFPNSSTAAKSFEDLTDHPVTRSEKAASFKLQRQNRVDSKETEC

[7] = biological target: Disintegrin and metalloproteinase domain-containing protein 17 (Homo sapiens) (UniProt P78536); assay: Inhibition of ADAM17 alpha-secretase activity in human […] cells using amyloid beta precursor protein as substrate at 30 ug/ml after 24 hrs by fluorimetric analysis; type: cell-based
[8] = biological target: Disintegrin and metalloproteinase domain-containing protein 17 (Homo sapiens) (UniProt P78536); assay: Inhibition of ADAM17 alpha-secretase activity in human […] cells using amyloid beta precursor protein as substrate at 20 ug/ml after 24 hrs by fluorimetric analysis; type: cell-based
[9] = Cytotoxicity against rat fibroblast cells; type: cell-based
KB = assay: Cytotoxicity against human KB cells; type: functional, cell-based
K562 [10] = assay: Cytotoxicity against human imatinib-resistant K562 cells; type: functional, cell-based
K562 [11] = assay: Cytotoxicity against human K562 cells; type: functional, cell-based
A549 = assay: Cytotoxicity against human A549 cells; type: functional, cell-based
Calu-6 = assay: Cytotoxicity against human Calu6 cells; type: functional, cell-based
[12] = Cytotoxicity against human PLC/PRF/5 cells; type: functional, cell-based
[13] = Cytotoxicity against rat dRLh-84 cells; type: functional, cell-based
[14] = Cytotoxicity against human HL60RG cells; type: functional, cell-based
P388-D1 (Mus musculus) = assay: Cytotoxicity against mouse P388D1 cells
[15] = Cytotoxicity against rat endothelial cells; conditions: Endothelial cell

CCCCCCCCCCCCCCOC(=O)c1cc(O)c(O)c(O)c1 [TETRADECYL GALLATE]
IC50 (CCRF-CEM): > 50 µM | IC50 (L1210): 8.5 µM | IC50 (B16-F10): 60 µM

CCCCCCCCOC(=O)c1cc(O)c(O)c(O)c1 [OCTYL_GALLATE]
IC50 (CCRF-CEM): 50 µM | IC50 (L1210): 22 µM | IC50 (B16-F10): 45 µM | IC50 (L929): 1 µM | IC50 [1]: 1.5 µM

CCCCCCCCCCOC(=O)c1cc(O)c(O)c(O)c1 [DECYL GALLATE]
IC50 (CCRF-CEM): 9.8 µM | IC50 (L1210): 12.2 µM | IC50 (B16-F10): 82 µM

CCCCCCCCCCCCOC(=O)c1cc(O)c(O)c(O)c1 [DODECYL GALLATE]
IC50 (MDA-MB-231): 1 µM | IC50 (CCRF-CEM): 47.4 µM | IC50 (L1210): 10.9 µM | IC50 (B16-F10): 48 µM | IC50 (L929): 1 µM | IC50 [1]: 1 µM | IC50 (HL-60): 33 µM

CCCOC(=O)c1cc(O)c(O)c(O)c1 [PROPYL GALLATE]
IC50 (L929): 40 µM | IC50 [1]: 12 µM | IC50 (HeLa): 800 µM

O=C(O)c1cc(O)c(O)c(O)c1 [GALLIC ACID]
Activity (U-251 [2]): 31% | Activity (U-251 [3]): 51% | Activity [4]: 30% | Activity [5]: 29% | inhibition [6]: 38.9% | inhibition [7]: 43.5% | inhibition [8]: 47.9% | IC50 [9]: > 20 µg/mL | IC50 (KB): 13.2 µg/mL (≈ 77.6 µM) | IC50 (K562 [10]): 4.75 µM | IC50 (K562 [11]): 33 µM | IC50 (L929): 250 µM | IC50 [1]: 40 µM | IC50 (A549): 100 µM | IC50 (Calu-6): 10 µM | IC50 (HeLa): 358 µM | IC50 [12]: 387 µM | IC50 [13]: 364 µM | IC50 (HL-60): 300 µM | IC50 [14]: 317 µM | IC50 (P388-D1 (Mus musculus)): 282 µM | IC50 [15]: > 20 µg/mL
